{
  "source": "patent US20230338347A1",
  "about": "“New Use of Inhibitors of the Notch Signalling Pathway” (Cellestia Biotech AG, priority 2020, published 2023)",
  "key": {"[1]": {"tested_on": "adenoid cystic carcinoma (ACC)", "assay": "Phase I/IIA study: preliminary clinical efficacy (best response, disease control rate)", "format": "in vivo, human", "conditions": "for Disease control rate (CR, PR or SD / patients treated): 19 ACC patients", "from_the_text": "Each lane represents one patient and the length of the lane represents the duration of treatment. […] Disease control rate of 19 patients with adenoid cystic carcinoma at 8 weeks and 20 weeks was 79% and 58%, respectively (calculated as number of patients with complete or partial response, or stable disease divided by the number of patients with that indication treated). Abbreviations: SD, stable disease; PD, progressive disease; NA, not applicable).\n(§1) The primary outcome measures for this study are: • Part A (Escalation): Dose limiting toxicities (DLT) • Part B (Expansion): Best overall response according to the respective tumour assessment criteria for the different cancer indications.\nThe Notch status of the other patients is under investigation. Disease control rate (DCR) of 19 ACC patients at 8 weeks and 20 weeks was 79% and 58%, respectively (DCR defined as number of patients with CR, PR, or SD divided by the number of patients treated)."}, "[2]": {"assay": "Phase I/IIA first-in-human dose escalation: safety and tolerability (adverse events, DLT)", "conditions": "in vivo", "from_the_text": "[…], open-label study investigating the safety, tolerability, pharmacokinetics (PK), pharmacodynamics (PD) and preliminary efficacy of the pan-NOTCH inhibitor 6-(4-Tert-Butylphenoxy)Pyridin-3-Amine in adult patients with locally advanced or metastatic solid tumours or hematologic malignancies.\n6-(4-Tert-Butylphenoxy)Pyridin-3-Amine is orally administered and is a small molecule targeting the NOTCH signalling pathway with binding to the NOTCH-specific transcription complex located at the nucleus of cells. The study is divided into two parts with Part A being the dose escalation part of the study to determine the maximum tolerated dose (MTD) or recommended Phase II dose (RP2D). In Part A at least 3, up to 6 patients per dose will participate in the sequentially enrolled dose cohorts. In an additional cohort of approximately 45-50 patients, the safety of the previously determined RP2D will be confirmed (dose confirmatory cohort).\nThe dosing will be 15, 30, 60, 120, 170, 250, 400, or 600 mg of the 6-(4-Tert-Butylphenoxy)Pyridin-3-Amine monohydrochloride salt or higher per day or alternatively 20, 40, 60, 120, 170, 250, 400, or 600 mg of the 6-(4-Tert-Butylphenoxy)Pyridin-3-Amine monohydrochloride salt or higher per day. Dosing of 15, 30, 60, 120, 170, 250, 400, or 600 mg of the 6-(4-Tert-Butylphenoxy)Pyridin-3-Amine monohydrochloride salt corresponds to dosing of 13, 26, 52, 104, 148, 217, 348, or 522 mg of 6-(4-Tert-Butylphenoxy)Pyridin-3-Amine (free base). Dosing of 20, 40, 60, 120, 170, 250, 400, or 600 mg of the 6-(4-Tert-Butylphenoxy)Pyridin-3-Amine monohydrochloride salt corresponds to dosing of 17, 35, 52, 104, 148, 217, 348, or 522 mg of 6-(4-Tert-Butylphenoxy)Pyridin-3-Amine (free base). For this study, 6-(4-Tert-Butylphenoxy)Pyridin-3-Amine monohydrochloride salt was formulated into a capsule having a drug load of 5, 10, 20, 50 and 100 mg, respectively intended to be administered orally. • Patients will meet the following criteria:\nas §1\nFourty-one patients (median age 55 years, range 25 to 76 years) have been treated with 6-(4-Tert-Butylphenoxy)Pyridin-3-Amine in the dose escalation part of the clinical study at oral doses of 15 mg-600 mg QD (once a day). […] Cumulatively, a total of 352 AEs has occurred in 41 patients since study initiation, of which 132 AEs […] in 31 patients were considered related to the study drug. The treatment-related treatment-emergent AEs (TEAEs) most commonly reported (≥10% of patients) were nausea (24%), diarrhea (20%), dyspepsia (15%), fatigue (12%), and vision blurred (12%)."}},
  "data": [
    {"smiles": "CC(C)(C)c1ccc(Oc2ccc(N)cn2)cc1", "note": "[6-(4-Tert-Butylphenoxy)Pyridin-3-Amine]", "values": [
      {"measurement": "number of ACC patients with radiologically confirmed stable disease", "setting": "[1]; 4 of them with Notch activating mutation", "value": "Ten"},
      {"measurement": "Disease control rate (CR, PR or SD / patients treated)", "setting": "[1]; at 8 weeks", "value": 79, "unit": "%"},
      {"measurement": "Disease control rate (CR, PR or SD / patients treated)", "setting": "[1]; at 20 weeks", "value": 58, "unit": "%"},
      {"measurement": "best response", "setting": "[1]; at doses showing target engagement", "value": "durable stable disease"},
      {"measurement": "AEs considered related to the study drug, share of all AEs", "setting": "[2]; human", "value": 37.2, "unit": "%"},
      {"measurement": "number of AEs considered related to the study drug", "setting": "[2]; human", "value": 132},
      {"measurement": "number of patients with AEs considered related to the study drug", "setting": "[2]; human", "value": 31},
      {"measurement": "number of serious adverse events (SAEs)", "setting": "[2]; human", "value": 12},
      {"measurement": "related AE of tachycardia", "setting": "[2]; human", "value": "one related AE of tachycardia Grade 1"},
      {"measurement": "serious adverse events, share of all AEs", "setting": "[2]; human", "value": 3.4, "unit": "%"},
      {"measurement": "total number of AEs", "setting": "[2]; human", "value": 352},
      {"measurement": "treatment-related TEAE diarrhea", "setting": "[2]; human", "value": 20, "unit": "%"},
      {"measurement": "treatment-related TEAE dyspepsia", "setting": "[2]; human", "value": 15, "unit": "%"},
      {"measurement": "treatment-related TEAE fatigue", "setting": "[2]; human", "value": 12, "unit": "%"},
      {"measurement": "treatment-related TEAE nausea", "setting": "[2]; human", "value": 24, "unit": "%"},
      {"measurement": "treatment-related TEAE vision blurred", "setting": "[2]; human", "value": 12, "unit": "%"},
      {"measurement": "QTc prolongation", "setting": "[2]", "value": "no QTc prolongations"},
      {"measurement": "SAEs considered related to study drug", "setting": "[2]", "value": "one SAE was considered related to study drug"},
      {"measurement": "cardiotoxicity signal", "setting": "[2]", "value": "no signal of cardiotoxicity"},
      {"measurement": "deaths due to drug-related AEs", "setting": "[2]", "value": "No deaths due to drug-related AEs"},
      {"measurement": "dose limiting toxicity (DLT)", "setting": "[2]", "value": "one dose limiting toxicity"},
      {"measurement": "dose relation of AEs over the dose cohorts", "setting": "[2]", "value": "no evidence of dose relation"},
      {"measurement": "skin phototoxicity or eye mydriasis events", "setting": "[2]", "value": "No events of skin phototoxicity or eye mydriasis"}
    ]}
  ]
}
